Assay [1] in a line: Cell growth assay (WST-8) for "B" compounds. The class given is cell-based. The following applies: T47D, T47D cell line; read-out: Cell growth Inhibition in T47D cell line IC50. The gist of the method:
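Four-day compound exposure of cells plated at 1500/well the day before. Read-out is WST-8 (10%, 2.5 h, 37 °C) absorbance at 450 nm, normalized to vehicle control over three independent repeats.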

The target in assay [2] is ER (Homo sapiens (Human), UniProt P03372). As to the kind of experiment: In-cell western blot analysis of ER for "B" compounds. The class given is cell-based. Particulars: 16 hours, read-out: ICW DC50. As to the method:
R^T 2h, gentle shaking. Negative control: cells plus secondary antibodies (no primary antibodies); e, wash x 4 with PBS+0.05-0.1% Tween 20, gentel shaking; f, anti-rabbit-680 and anti-mouse-800 (both 1:1000 in LiCor block+0.05% Tween20, R^T 1h, gentle shaking, no light. LI-COR: 0.2% to reduce background; g, wash×4 with PBS+0.05% Tween 20, gental shaking; h, add 100 μL or 25 μL of PBS to each well and read on CLX plate reader. The relative ER percentage in treated cells were obtained by comparing the values of treated wells to those in untreated and DMSO-treated wells as 100%.

Chain of ER (P03372 whole entry): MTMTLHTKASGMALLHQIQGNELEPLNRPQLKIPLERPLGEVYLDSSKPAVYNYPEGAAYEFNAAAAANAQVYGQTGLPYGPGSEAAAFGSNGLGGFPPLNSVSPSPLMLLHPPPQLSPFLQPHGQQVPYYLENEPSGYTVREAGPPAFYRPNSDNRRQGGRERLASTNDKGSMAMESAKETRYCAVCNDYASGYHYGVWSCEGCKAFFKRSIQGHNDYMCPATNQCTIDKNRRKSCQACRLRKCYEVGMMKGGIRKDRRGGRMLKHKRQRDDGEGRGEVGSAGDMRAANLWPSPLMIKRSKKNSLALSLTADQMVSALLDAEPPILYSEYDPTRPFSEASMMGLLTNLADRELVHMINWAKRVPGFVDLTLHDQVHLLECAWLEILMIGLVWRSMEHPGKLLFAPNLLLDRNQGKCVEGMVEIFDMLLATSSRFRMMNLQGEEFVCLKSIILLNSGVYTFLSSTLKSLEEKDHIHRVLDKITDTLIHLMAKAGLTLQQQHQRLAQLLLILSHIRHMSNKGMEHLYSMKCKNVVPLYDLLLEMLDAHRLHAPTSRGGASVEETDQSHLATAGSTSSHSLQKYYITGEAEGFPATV

In the case of `O=C1CCC(N2Cc3cc4c(cc3C2=O)OC[C@@H]2CN(CC(=O)N3CC5(CCN(c6ccc([C@@H]7c8ccc(O)cc8CC[C@@H]7c7ccccc7)cc6)CC5)C3)CCN42)C(=O)N1` (stereo partly drawn) [Compound B143, 3-((S)-3-(2-(7-(4-((1R,2S)-6-hydroxy-2-phenyl-1,2,3,4-tetrahydronaphthalen-1-yl)phenyl)-2,7-diazaspiro[3.5]nonan-2-yl)-2-oxoethyl)-8-oxo-1,2,3,4,4a,5,8,10-octahydro-9H-pyrazino[1′,2′: 4,5][1,4]oxazino[2,3-f]isoindol-9-yl)piperidine-2,6-dione], the half-inhibitory concentration (IC50) in assay [1] is under 1 nM. For the same molecule, the DC50 in assay [2] was under 10 nM.
On the same counts, the results for `O=C1CCC(N2Cc3cc4c(cc3C2=O)OC[C@@H]2CN(C(=O)CN3CCN(c5ccc([C@@H]6c7ccc(O)cc7CC[C@@H]6c6ccccc6)cc5)CC3)CCN42)C(=O)N1` (stereo partly drawn) [Compound B144, 3-((S)-3-(2-(4-(4-((1R,2S)-6-hydroxy-2-phenyl-1,2,3,4-tetrahydronaphthalen-1-yl)phenyl)piperazin-1-yl)acetyl)-8-oxo-1,2,3,4,4a,5,8,10-octahydro-9H-pyrazino[1′,2′:4,5][1,4]oxazino[2,3-f]isoindol-9-yl)piperidine-2,6-dione] are under 1 nM and 10 to 100 nM.
On the same counts, the results for `O=C1CCC(N2Cc3cc4c(cc3C2=O)OC[C@@H]2CN(CC(=O)N3CCN(c5ccc([C@@H]6c7ccc(O)cc7CC[C@@H]6c6ccccc6)cc5)CC3)CCN42)C(=O)N1` (stereo partly drawn) [Compound B145, 3-((S)-3-(2-(4-(4-((1R,2S)-6-hydroxy-2-phenyl-1,2,3,4-tetrahydronaphthalen-1-yl)phenyl)piperazin-1-yl)-2-oxoethyl)-8-oxo-1,2,3,4,4a,5,8,10-octahydro-9H-pyrazino[1′,2′:4,5][1,4]oxazino[2,3-f]isoindol-9-yl)piperidine-2,6-dione] are under 1 nM and 10 to 100 nM.
On the same counts, the results for `O=C1CCC(N2Cc3cc4c(cc3C2=O)OC[C@@H]2CN(C(=O)CN3CCC5(CC3)CCN(c3ccc([C@@H]6c7ccc(O)cc7CC[C@@H]6c6ccccc6)cc3)CC5)CCN42)C(=O)N1` (stereo partly drawn) [Compound B146, 3-((S)-3-(2-(9-(4-((1R,2S)-6-hydroxy-2-phenyl-1,2,3,4-tetrahydronaphthalen-1-yl)phenyl)-3,9-diazaspiro[5.5]undecan-3-yl)acetyl)-8-oxo-1,2,3,4,4a,5,8,10-octahydro-9H-pyrazino[1′,2′:4,5][1,4]oxazino[2,3-f]isoindol-9-yl)piperidine-2,6-dione] are under 1 nM and under 10 nM.
As to `O=C1CCC(N2Cc3cc4c(cc3C2=O)OC[C@@H]2CN(CC(=O)N3CCC5(CC3)CCN(c3ccc([C@@H]6c7ccc(O)cc7CC[C@@H]6c6ccccc6)cc3)CC5)CCN42)C(=O)N1` (stereo partly drawn) [Compound B147, 3-((S)-3-(2-(9-(4-((1R,2S)-6-hydroxy-2-phenyl-1,2,3,4-tetrahydronaphthalen-1-yl)phenyl)-3,9-diazaspiro[5.5]undecan-3-yl)-2-oxoethyl)-8-oxo-1,2,3,4,4a,5,8,10-octahydro-9H-pyrazino[1′,2′:4,5][1,4]oxazino[2,3-f]isoindol-9-yl)piperidine-2,6-dione], the IC50 in assay [1] fell in the range of 1 to 10 nM. Further, the DC50 in assay [2] lay within 10 to 100 nM.
The corresponding values for `O=C1CCC(N2Cc3cc4c(cc3C2=O)OC[C@@H]2CN(CC(=O)N3CCC5(CC3)CCN(c3ccc([C@@H]6c7ccc(O)cc7CC[C@@H]6c6ccccc6)cn3)CC5)CCN42)C(=O)N1` (stereo partly drawn) [Compound B148, 3-((S)-3-(2-(9-(5-(cis-6-hydroxy-2-phenyl-1,2,3,4-tetrahydronaphthalen-1-yl)pyridin-2-yl)-3,9-diazaspiro[5.5]undecan-3-yl)-2-oxoethyl)-8-oxo-1,2,3,4,4a,5,8,10-octahydro-9H-pyrazino[1′,2′: 4,5][1,4]oxazino[2,3-f]isoindol-9-yl)piperidine-2,6-dione] are 1 to 10 nM and 10 to 100 nM.
Consider `O=C1CCC(N2Cc3cc4c(cc3C2=O)OC[C@@H]2CN(CC(=O)N3CC(Oc5ccc([C@@H]6c7ccc(O)cc7CC[C@@H]6c6ccccc6)cc5)C3)CCN42)C(=O)N1` (stereo partly drawn) [Compound B150, 3-((S)-3-(2-(3-(4-((1R,2S)-6-hydroxy-2-phenyl-1,2,3,4-tetrahydronaphthalen-1-yl)phenoxy)azetidin-1-yl)-2-oxoethyl)-8-oxo-1,2,3,4,4a,5,8,10-octahydro-9H-pyrazino[1′,2′:4,5][1,4]oxazino[2,3-f]isoindol-9-yl)piperidine-2,6-dione], for which the IC50 in assay [1] is under 1 nM. Further, in assay [2], the DC50 is under 10 nM.
On the same counts, the results for `O=C1CCC(N2Cc3cc4c(cc3C2=O)OC[C@@H]2CN(C(=O)CN3CC(Oc5ccc([C@@H]6c7ccc(O)cc7CC[C@@H]6c6ccccc6)cc5)C3)CCN42)C(=O)N1` (stereo partly drawn) [Compound B151, 3-((S)-3-(2-(3-(4-((1R,2S)-6-hydroxy-2-phenyl-1,2,3,4-tetrahydronaphthalen-1-yl)phenoxy)azetidin-1-yl)acetyl)-8-oxo-1,2,3,4,4a,5,8,10-octahydro-9H-pyrazino[1′,2′:4,5][1,4]oxazino[2,3-f]isoindol-9-yl)piperidine-2,6-dione] are under 1 nM and under 10 nM.
The corresponding values for `O=C1CCC(N2Cc3cc4c(cc3C2=O)OC[C@@H]2CN(CC(=O)N3CCC5(C3)CN(c3ccc([C@@H]6c7ccc(O)cc7CC[C@@H]6c6ccccc6)cc3)C5)CCN42)C(=O)N1` (stereo partly drawn) [Compound B152, 3-((S)-3-(2-(2-(4-((1R,2S)-6-hydroxy-2-phenyl-1,2,3,4-tetrahydronaphthalen-1-yl)phenyl)-2,6-diazaspiro[3.4]octan-6-yl)-2-oxoethyl)-8-oxo-1,2,3,4,4a,5,8,10-octahydro-9H-pyrazino[1′,2′:4,5][1,4]oxazino[2,3-f]isoindol-9-yl)piperidine-2,6-dione] are under 1 nM and under 10 nM.
On the same counts, the results for `O=C1CCC(N2Cc3cc4c(cc3C2=O)OC[C@@H]2CN(CC(=O)N3CC5(CC(Nc6ccc([C@@H]7c8ccc(O)cc8CC[C@@H]7c7ccccc7)cc6)C5)C3)CCN42)C(=O)N1` (stereo partly drawn) [Compound B153, 3-((S)-3-(2-(6-((4-((1R,2S)-6-hydroxy-2-phenyl-1,2,3,4-tetrahydronaphthalen-1-yl)phenyl)amino)-2-azaspiro[3.3]heptan-2-yl)-2-oxoethyl)-8-oxo-1,2,3,4,4a,5,8,10-octahydro-9H-pyrazino[1′,2′:4,5][1,4]oxazino[2,3-f]isoindol-9-yl)piperidine-2,6-dione] are under 1 nM and under 10 nM.
On to `O=C1CCC(N2Cc3cc4c(cc3C2=O)OC[C@@H]2CN(C(=O)CN3CCC5(C3)CN(c3ccc([C@@H]6c7ccc(O)cc7CC[C@@H]6c6ccccc6)cc3)C5)CCN42)C(=O)N1` (stereo partly drawn) [Compound B154, 3-((S)-3-(2-(2-(4-((1R,2S)-6-hydroxy-2-phenyl-1,2,3,4-tetrahydronaphthalen-1-yl)phenyl)-2,6-diazaspiro[3.4]octan-6-yl)acetyl)-8-oxo-1,2,3,4,4a,5,8,10-octahydro-9H-pyrazino[1′,2′:4,5][1,4]oxazino[2,3-f]isoindol-9-yl)piperidine-2,6-dione], for which, in assay [1], the IC50 is under 1 nM. Further, the DC50 in assay [2] is under 10 nM.
On the same counts, the results for `O=C1CCC(N2Cc3cc4c(cc3C2=O)OC[C@@H]2CN(C(=O)CN3CC5(CC(Nc6ccc([C@@H]7c8ccc(O)cc8CC[C@@H]7c7ccccc7)cc6)C5)C3)CCN42)C(=O)N1` (stereo partly drawn) [Compound B155, 3-((S)-3-(2-(6-((4-((1R,2S)-6-hydroxy-2-phenyl-1,2,3,4-tetrahydronaphthalen-1-yl)phenyl)amino)-2-azaspiro[3.3]heptan-2-yl)acetyl)-8-oxo-1,2,3,4,4a,5,8,10-octahydro-9H-pyrazino[1′,2′:4,5][1,4]oxazino[2,3-f]isoindol-9-yl)piperidine-2,6-dione] are under 1 nM and under 10 nM.
The corresponding values for `O=C1CCC(N2Cc3cc4c(cc3C2=O)OC[C@@H]2CN(C(=O)CN3C[C@@H]5CN(c6ccc([C@@H]7c8ccc(O)cc8CC[C@@H]7c7ccccc7)cc6)C[C@@H]5C3)CCN42)C(=O)N1` (stereo partly drawn) [Compound B157, 3-((S)-3-(2-((3aR,6aS)-5-(4-((1R,2S)-6-hydroxy-2-phenyl-1,2,3,4-tetrahydronaphthalen-1-yl)phenyl)hexahydropyrrolo[3,4-c]pyrrol-2(1H)-yl)acetyl)-8-oxo-1,2,3,4,4a,5,8,10-octahydro-9H-pyrazino[1′,2′:4,5][1,4]oxazino[2,3-f]isoindol-9-yl)piperidine-2,6-dione] are under 1 nM and 10 to 100 nM.
On the same counts, the results for `O=C1CCC(N2Cc3cc4c(cc3C2=O)OC[C@@H]2CN(C(=O)CN3CCC5(CC3)CCN(c3ncc([C@@H]6c7ccc(O)cc7CC[C@@H]6c6ccccc6)cn3)CC5)CCN42)C(=O)N1` (stereo partly drawn) [Compound B159, 3-((S)-3-(2-(9-(5-((1S,2S)-6-hydroxy-2-phenyl-1,2,3,4-tetrahydronaphthalen-1-yl)pyrimidin-2-yl)-3,9-diazaspiro[5.5]undecan-3-yl)acetyl)-8-oxo-1,2,3,4,4a,5,8,10-octahydro-9H-pyrazino[1′,2′:4,5][1,4]oxazino[2,3-f]isoindol-9-yl)piperidine-2,6-dione] are 1 to 10 nM and 10 to 100 nM.
In the case of `O=C1CCC(N2C(=O)c3cc4c(cc3C2=O)CN(CC(=O)N2CC3(CC(Nc5ccc([C@@H]6c7ccc(O)cc7CC[C@@H]6c6ccccc6)cc5)C3)C2)C4)C(=O)N1` (stereo partly drawn) [Compound B163, 2-(2,6-dioxopiperidin-3-yl)-6-(2-(6-((4-((1R,2S)-6-hydroxy-2-phenyl-1,2,3,4-tetrahydronaphthalen-1-yl)phenyl)amino)-2-azaspiro[3.3]heptan-2-yl)-2-oxoethyl)-6,7-dihydropyrrolo[3,4-f]isoindole-1,3(2H,5H)-dione], the half-maximal inhibitory concentration (IC50) in assay [1] was in the range of 1 to 10 nM. In addition, the DC50 in assay [2] is under 10 nM.

The values are drawn from patent publication US20260028354A1, “TETRAHYDRONAPHTHALENE DERIVATIVES AS ESTROGEN RECEPTOR DEGRADERS” (REGENT OF THE UNIVERSITY OF MICHIGAN, priority 2022, published 2026).
